Source: US20220226319A1, “TALTIRELIN USE” (EOLAS RESEARCH LIMITED, priority 2019, published 2022)
“Also recorded” adds a separate entry of the source.

Legend:
Assay type in all cases: cell-based
[1] = system: SIRT1 gene expression in fibroblasts; assay: SIRT1 gene expression in fibroblasts; details: older cells (passage 20), FIG. 2
Text: (§1) FIG. 2 illustrates the increased expression of EFNB1, NFE2L2, SERPINE1 and SIRT1 genes in fibroblasts that occurs by administration of taltirelin.

[2] = system: EFNB1 gene expression in fibroblasts; assay: EFNB1 gene expression in fibroblasts; details: older cells (passage 20), FIG. 2
Text: as §1

[3] = system: SERPINE1 gene expression in fibroblasts; assay: SERPINE1 gene expression in fibroblasts; details: older cells (passage 20), FIG. 2
Text: as §1

[4] = system: NFE2L2 gene expression in fibroblasts; assay: NFE2L2 gene expression in fibroblasts; details: older cells (passage 20), FIG. 2
Text: as §1

[5] = system: FOXO1 gene expression in fibroblasts; assay: FOXO1 gene expression in fibroblasts; details: older cells (passage 20), P<0.01, FIG. 1
Text: (§2) Experiments have shown that taltirelin modulates the gene expression in fibroblasts of a variety of genes involved in processes underlying ageing.
(§3) FIG. 1 illustrates the increased expression of FOXO1 and FOXO3 genes that occurs in fibroblasts by administration of taltirelin. From the results, it can be seen that the administration of taltirelin in older cells (passage 20) led to a large increase in the expression of FOXO1 (>5×) and FOXO3 (>1.5×) compared to untreated controls. The results were statistically significant with P<0.01.

[6] = system: FOXO3 gene expression in fibroblasts; assay: FOXO3 gene expression in fibroblasts; details: older cells (passage 20), P<0.01, FIG. 1
Text: as §2, §3

With CN1C(=O)C[C@@H](C(=O)N[C@@H](Cc2cnc[nH]2)C(=O)N2CCC[C@H]2C(N)=O)NC1=O [taltirelin, N-[[(4S)-Hexahydro-1-methyl-2,6-dioxo-4-pyrimidinyl]carbonyl]-L-histidyl-L-prolinamide] the “expression of SIRT1 gene compared to untreated controls” value [1] was “statistically significant (P<0.01) increase; also recorded: increased significantly”, the “expression of EFNB1 gene compared to untreated controls” value [2] was “statistically significant (P<0.01) increase; also recorded: significantly increased” and the “expression of SERPINE1 gene compared to untreated controls” value [3] was “statistically significant (P<0.01) decrease; also recorded: significantly inhibited”. The “expression of NFE2L2 gene compared to untreated controls” value [4] was “statistically significant (P<0.01) increase; also recorded: significantly increased”, the “increase in the expression of FOXO1 compared to untreated controls” value [5] was > 5 × and the “increase in the expression of FOXO3 compared to untreated controls” value [6] was > 1.5 ×.
